Measured values reported in PMC8488693 (Proceedings of the National Academy of Sciences of the …, 2021).

Tests used:
Pf cultures = details: ref [9]; cited from earlier work
Hs20S β5c = Hs20S β5c (Homo sapiens, UniProt P20618+P28074); experiment: Hs20S β5c activity, Ac-WLA-AMC cleavage with human PA28αβ; format: biochemical

More potent as inhibitor of Hsβ5c activity than of Pfβ5 activity (Hs20S β5c): twofold
Compound: CC(C)C[C@H](NC(=O)[C@H](Cc1ccccc1)NC(=O)c1cnccn1)B(O)O [Bortezomib, bortezomib, reference compound]
Synergy with dihydroxyartemisinin (DHA) (Pf cultures): strong synergy
